Measurements taken from article PMC4490784, “Compensatory induction of MYC expression by sustained CDK9 inhibition via a BRD4-dependent mechanism” (eLife, 2015).

What was measured:
Assay in all cases: KINOMEscan binding assay
EPHA4 = target: T1, EPHA4 (Homo sapiens, UniProt P54764); conditions: read-out: % Retention on Solid Support
T1 construct: purchased DiscoveRx KINOMEscan
Description: (§1) As there are no commercial or in-house kinase assays available for CDK3, CDK5, CDK11 and CDK13, the inhibitory abilities of i-CDK9 toward these CDKs were thus evaluated in the DiscoveRx KINOMEscan assay, which is based on a proprietary active site-directed competition-binding platform ([Fabian et al., 2005]).
(§2) The inhibitory activity of i-CDK9 for CDK1-CycB (Upstate/Millipore), CDK2-CycA (Invitrogen), CDK4-CycD1 (Novartis), CDK7-CycH-MAT1 (Invitrogen), and CDK9-CycT1 (Invitrogen) was assessed in the AlphaScreen (PerkinElmer, Inc)-based kinase assay developed at Novartis. Briefly, each CDK–cyclin pair was pre-incubated with i-CDK9 for 15 min, followed by addition of kinase substrates (ELK for CDK1 and CDK2, RB for CDK4, and CDK7tide for CDK7 and CDK9). The mixture was incubated at room temperature for additional 4–5 hr. The reaction was stopped and read on Envision (PerkinElmer, Inc). Selectivity against a large panel of over 400 kinases was evaluated using the KINOMEscan platform (DiscoveRx, CA) employing a proprietary active site-directed competition binding assay ([Fabian et al., 2005]). The assay was conducted at two different concentrations of i-CDK9 (1 and 10 µM) by DiscoveRx.

GRK7 = target: T2, GRK7 (Homo sapiens, UniProt Q8WTQ7); conditions: read-out: % Retention on Solid Support
T2 construct: purchased DiscoveRx KINOMEscan
T2 sequence (Q8WTQ7 whole entry): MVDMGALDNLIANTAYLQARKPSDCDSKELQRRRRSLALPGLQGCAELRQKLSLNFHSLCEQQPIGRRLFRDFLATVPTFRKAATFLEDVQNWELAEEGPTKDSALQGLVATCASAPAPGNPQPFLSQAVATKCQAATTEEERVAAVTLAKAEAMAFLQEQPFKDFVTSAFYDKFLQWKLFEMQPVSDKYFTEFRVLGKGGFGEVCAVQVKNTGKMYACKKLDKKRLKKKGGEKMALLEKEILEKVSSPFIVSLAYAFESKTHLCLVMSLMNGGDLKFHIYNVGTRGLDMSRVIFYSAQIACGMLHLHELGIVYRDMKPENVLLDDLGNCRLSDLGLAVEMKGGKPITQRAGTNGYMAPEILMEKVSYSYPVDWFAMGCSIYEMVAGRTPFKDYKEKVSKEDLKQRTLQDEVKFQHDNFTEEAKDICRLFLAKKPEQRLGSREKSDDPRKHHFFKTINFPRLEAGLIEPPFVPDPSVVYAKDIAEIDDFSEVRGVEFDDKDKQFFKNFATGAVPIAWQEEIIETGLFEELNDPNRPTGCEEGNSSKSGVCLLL
Description: as §1, §2

MEK3 = target: T3, MEK3 (Homo sapiens, UniProt P46734); conditions: read-out: % Retention on Solid Support
T3 construct: purchased DiscoveRx KINOMEscan
T3 sequence (P46734 whole entry): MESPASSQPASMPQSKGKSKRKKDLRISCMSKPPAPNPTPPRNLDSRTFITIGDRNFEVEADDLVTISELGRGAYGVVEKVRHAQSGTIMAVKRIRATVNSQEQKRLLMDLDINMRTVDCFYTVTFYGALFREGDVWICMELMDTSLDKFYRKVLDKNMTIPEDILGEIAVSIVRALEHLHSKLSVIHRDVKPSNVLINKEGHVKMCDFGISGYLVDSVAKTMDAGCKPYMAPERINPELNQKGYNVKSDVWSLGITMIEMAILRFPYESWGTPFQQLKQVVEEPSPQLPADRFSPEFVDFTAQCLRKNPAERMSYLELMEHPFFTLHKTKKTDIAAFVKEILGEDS
Description: as §1, §2

CLK1 = target: T4, CLK1 (Homo sapiens, UniProt P49759); conditions: read-out: % Retention on Solid Support
T4 construct: purchased DiscoveRx KINOMEscan
Description: as §1, §2

MKK7 = target: T5, MKK7 (Homo sapiens, UniProt O14733); conditions: 1 µM i-CDK9
T5 construct: purchased DiscoveRx KINOMEscan
Description: as §1, §2

MARK4 = target: T6, MARK4 (Homo sapiens, UniProt Q96L34)
T6 construct: purchased DiscoveRx KINOMEscan
Description: as §1, §2

IGF1R = target: T7, IGF1R (Homo sapiens, UniProt P08069); conditions: read-out: % Retention on Solid Support
T7 construct: purchased DiscoveRx KINOMEscan
T7 sequence (P08069 31-1367): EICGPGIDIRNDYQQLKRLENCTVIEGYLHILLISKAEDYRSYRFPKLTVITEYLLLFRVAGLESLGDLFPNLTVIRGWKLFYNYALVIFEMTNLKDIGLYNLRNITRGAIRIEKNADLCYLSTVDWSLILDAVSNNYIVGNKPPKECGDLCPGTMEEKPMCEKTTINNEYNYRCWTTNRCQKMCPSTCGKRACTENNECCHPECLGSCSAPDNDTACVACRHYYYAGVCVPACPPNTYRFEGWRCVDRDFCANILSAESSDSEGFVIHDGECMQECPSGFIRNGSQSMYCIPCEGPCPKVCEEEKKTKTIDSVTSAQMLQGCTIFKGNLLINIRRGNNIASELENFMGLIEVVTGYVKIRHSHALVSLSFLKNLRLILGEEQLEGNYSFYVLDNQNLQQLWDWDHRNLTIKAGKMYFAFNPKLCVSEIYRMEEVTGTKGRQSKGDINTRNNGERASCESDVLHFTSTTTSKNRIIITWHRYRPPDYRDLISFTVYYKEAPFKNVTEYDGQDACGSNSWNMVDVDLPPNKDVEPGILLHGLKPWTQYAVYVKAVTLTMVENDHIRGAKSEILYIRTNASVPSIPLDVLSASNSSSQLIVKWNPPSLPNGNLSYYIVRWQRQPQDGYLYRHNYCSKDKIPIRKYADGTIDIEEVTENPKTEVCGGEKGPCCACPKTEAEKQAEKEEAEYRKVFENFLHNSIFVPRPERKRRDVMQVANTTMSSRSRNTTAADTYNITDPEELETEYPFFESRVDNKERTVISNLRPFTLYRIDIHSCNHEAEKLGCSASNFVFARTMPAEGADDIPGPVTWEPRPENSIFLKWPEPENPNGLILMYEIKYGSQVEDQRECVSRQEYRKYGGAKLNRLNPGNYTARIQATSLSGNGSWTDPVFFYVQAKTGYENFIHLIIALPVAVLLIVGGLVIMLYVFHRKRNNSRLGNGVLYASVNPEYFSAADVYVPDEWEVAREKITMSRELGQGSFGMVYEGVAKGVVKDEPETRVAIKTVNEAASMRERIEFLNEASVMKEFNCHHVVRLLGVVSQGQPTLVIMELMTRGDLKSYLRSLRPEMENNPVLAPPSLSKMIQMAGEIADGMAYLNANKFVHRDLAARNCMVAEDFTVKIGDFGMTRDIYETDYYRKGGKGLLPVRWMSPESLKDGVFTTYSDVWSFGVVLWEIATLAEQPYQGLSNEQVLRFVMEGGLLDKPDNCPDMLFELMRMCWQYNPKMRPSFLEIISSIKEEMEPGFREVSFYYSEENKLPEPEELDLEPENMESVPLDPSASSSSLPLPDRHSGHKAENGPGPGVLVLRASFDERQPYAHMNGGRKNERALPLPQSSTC
Description: as §1, §2

[1] = target: T8, RSK4(Kin.Dom.1-N-terminal) (Homo sapiens, UniProt Q9UK32)
T8 construct: RSK4(Kin.Dom.1-N-terminal); purchased DiscoveRx KINOMEscan
Description: as §1, §2

AKT1 = target: T9, AKT1 (Homo sapiens, UniProt P31749); conditions: read-out: % Retention on Solid Support
T9 construct: purchased DiscoveRx KINOMEscan
T9 sequence (P31749 whole entry): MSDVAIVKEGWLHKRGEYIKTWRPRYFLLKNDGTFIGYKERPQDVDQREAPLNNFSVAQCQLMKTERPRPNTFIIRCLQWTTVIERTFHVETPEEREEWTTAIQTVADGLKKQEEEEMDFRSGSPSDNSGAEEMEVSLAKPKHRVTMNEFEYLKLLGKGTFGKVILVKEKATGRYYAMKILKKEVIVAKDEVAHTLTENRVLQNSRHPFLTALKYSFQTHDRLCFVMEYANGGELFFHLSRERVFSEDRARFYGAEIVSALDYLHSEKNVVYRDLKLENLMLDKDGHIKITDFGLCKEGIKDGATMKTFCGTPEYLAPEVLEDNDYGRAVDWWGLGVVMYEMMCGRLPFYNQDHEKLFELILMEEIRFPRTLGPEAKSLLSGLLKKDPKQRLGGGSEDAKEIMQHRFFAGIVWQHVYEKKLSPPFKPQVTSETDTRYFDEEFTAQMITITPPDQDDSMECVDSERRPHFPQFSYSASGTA
Description: as §1, §2

ZAP70 = target: T10, ZAP70 (Homo sapiens, UniProt P43403); conditions: read-out: % Retention on Solid Support
T10 construct: purchased DiscoveRx KINOMEscan
T10 sequence (P43403 1-619): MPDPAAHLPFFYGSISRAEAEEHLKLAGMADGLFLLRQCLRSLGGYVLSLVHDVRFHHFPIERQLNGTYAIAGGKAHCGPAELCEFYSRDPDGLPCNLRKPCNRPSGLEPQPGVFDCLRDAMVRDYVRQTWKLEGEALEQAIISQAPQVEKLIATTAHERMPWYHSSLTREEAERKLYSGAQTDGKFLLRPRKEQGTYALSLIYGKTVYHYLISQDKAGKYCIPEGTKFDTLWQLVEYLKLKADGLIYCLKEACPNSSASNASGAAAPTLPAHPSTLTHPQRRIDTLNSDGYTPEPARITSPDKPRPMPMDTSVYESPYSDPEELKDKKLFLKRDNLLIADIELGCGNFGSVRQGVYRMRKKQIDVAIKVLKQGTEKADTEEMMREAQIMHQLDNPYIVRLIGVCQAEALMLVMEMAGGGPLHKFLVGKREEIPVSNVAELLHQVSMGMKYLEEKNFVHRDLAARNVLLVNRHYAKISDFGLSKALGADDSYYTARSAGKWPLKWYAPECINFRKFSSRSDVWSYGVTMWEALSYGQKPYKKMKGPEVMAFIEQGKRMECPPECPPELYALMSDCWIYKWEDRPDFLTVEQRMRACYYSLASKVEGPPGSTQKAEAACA
Description: as §1, §2

NIM1 = target: T11, NIM1 (Homo sapiens, UniProt Q8IY84); conditions: read-out: % Retention on Solid Support
T11 construct: purchased DiscoveRx KINOMEscan
T11 sequence (Q8IY84 whole entry): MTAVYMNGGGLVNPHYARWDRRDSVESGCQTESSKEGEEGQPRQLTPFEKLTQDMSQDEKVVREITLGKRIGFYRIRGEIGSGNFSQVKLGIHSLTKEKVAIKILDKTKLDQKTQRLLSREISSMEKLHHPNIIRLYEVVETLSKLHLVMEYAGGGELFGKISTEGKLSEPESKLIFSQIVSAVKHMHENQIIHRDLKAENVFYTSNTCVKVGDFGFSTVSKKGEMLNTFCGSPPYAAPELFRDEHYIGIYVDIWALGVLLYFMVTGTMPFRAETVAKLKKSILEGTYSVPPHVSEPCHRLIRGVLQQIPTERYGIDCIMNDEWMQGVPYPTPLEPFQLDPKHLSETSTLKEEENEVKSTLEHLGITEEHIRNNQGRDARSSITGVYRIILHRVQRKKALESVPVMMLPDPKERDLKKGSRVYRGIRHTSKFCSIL
Description: as §1, §2

MLK2 = target: T12, MLK2 (Homo sapiens, UniProt Q02779); conditions: read-out: % Retention on Solid Support
T12 construct: purchased DiscoveRx KINOMEscan
Description: as §1, §2

PKAC-beta = target: T13, PKAC-beta (Homo sapiens, UniProt P22694); conditions: read-out: % Retention on Solid Support
T13 construct: purchased DiscoveRx KINOMEscan
Description: as §1, §2

YANK1 = target: T14, YANK1 (Homo sapiens, UniProt Q8WU08); conditions: 1 µM i-CDK9; read-out: % Retention on Solid Support
T14 construct: purchased DiscoveRx KINOMEscan
Description: as §1, §2

[2] = target: T15, ABL1(M351T)-phosphorylated (Homo sapiens, UniProt P00519, M351T); conditions: 1 µM i-CDK9; read-out: % Retention on Solid Support
T15 construct: purchased DiscoveRx KINOMEscan
Description: as §1, §2

LOK = target: T16, LOK (Homo sapiens, UniProt O94804)
T16 construct: purchased DiscoveRx KINOMEscan
Description: as §1, §2

ACVR2B = target: T17, ACVR2B (Homo sapiens, UniProt Q13705)
T17 construct: purchased DiscoveRx KINOMEscan
T17 sequence (Q13705 19-512): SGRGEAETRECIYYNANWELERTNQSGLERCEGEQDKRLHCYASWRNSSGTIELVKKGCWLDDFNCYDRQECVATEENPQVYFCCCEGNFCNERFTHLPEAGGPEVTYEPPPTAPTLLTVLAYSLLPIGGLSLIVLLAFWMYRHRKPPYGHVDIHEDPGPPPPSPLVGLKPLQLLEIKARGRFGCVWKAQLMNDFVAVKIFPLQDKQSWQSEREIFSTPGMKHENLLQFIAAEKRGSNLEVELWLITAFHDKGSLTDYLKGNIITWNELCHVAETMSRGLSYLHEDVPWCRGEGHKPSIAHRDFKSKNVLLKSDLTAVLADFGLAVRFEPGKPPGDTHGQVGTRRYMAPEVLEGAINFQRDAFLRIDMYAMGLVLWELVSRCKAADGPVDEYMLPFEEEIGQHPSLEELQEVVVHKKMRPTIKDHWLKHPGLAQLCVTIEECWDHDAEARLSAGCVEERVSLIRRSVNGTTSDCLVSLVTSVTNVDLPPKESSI
Description: as §1, §2

ERK3 = target: T18, ERK3 (Homo sapiens, UniProt Q16659); conditions: read-out: % Retention on Solid Support
T18 construct: purchased DiscoveRx KINOMEscan
Description: as §1, §2

MET = target: T19, MET (Homo sapiens, UniProt P08581)
T19 construct: purchased DiscoveRx KINOMEscan
Description: as §1, §2

PIK3CA(C420R) = target: T20, PIK3CA(C420R) (Homo sapiens, UniProt P42336, C420R); conditions: read-out: % Retention on Solid Support
T20 construct: purchased DiscoveRx KINOMEscan
T20 sequence (P42336 whole entry C420R): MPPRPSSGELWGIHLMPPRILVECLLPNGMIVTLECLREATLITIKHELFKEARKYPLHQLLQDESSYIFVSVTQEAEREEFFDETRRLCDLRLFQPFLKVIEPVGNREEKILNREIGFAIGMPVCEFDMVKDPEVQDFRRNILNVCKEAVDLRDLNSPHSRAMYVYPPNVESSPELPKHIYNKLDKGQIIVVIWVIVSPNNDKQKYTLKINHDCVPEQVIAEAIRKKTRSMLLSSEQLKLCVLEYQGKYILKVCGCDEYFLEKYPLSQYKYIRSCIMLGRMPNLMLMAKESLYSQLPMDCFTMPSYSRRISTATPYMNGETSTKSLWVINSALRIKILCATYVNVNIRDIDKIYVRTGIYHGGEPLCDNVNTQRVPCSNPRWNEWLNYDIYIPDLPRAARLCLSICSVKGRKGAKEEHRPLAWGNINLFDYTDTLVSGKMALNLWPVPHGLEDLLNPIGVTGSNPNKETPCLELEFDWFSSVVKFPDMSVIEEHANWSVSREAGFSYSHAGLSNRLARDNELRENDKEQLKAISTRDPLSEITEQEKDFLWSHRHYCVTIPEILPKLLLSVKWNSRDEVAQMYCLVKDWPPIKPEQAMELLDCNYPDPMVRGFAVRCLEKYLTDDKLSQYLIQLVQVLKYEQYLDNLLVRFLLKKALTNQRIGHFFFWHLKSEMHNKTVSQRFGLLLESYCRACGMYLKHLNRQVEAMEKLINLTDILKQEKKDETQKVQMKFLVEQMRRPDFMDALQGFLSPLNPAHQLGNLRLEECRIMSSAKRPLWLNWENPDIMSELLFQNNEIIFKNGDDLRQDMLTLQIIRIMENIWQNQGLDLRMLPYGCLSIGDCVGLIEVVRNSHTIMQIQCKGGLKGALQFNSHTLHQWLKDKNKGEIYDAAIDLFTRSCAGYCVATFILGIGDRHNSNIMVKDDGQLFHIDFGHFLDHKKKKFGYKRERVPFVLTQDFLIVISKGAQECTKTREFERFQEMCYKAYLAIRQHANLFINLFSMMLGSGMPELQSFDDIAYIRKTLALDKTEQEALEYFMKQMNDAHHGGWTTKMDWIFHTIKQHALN
Description: as §1, §2

[3] = target: T21, EGFR(L747-E749del, A750P) (Homo sapiens, UniProt P00533, A750P/DEL747-749)
T21 construct: purchased DiscoveRx KINOMEscan
Description: as §1, §2

TGFBR2 = target: T22, TGFBR2 (Homo sapiens, UniProt P37173); conditions: read-out: % Retention on Solid Support
T22 construct: purchased DiscoveRx KINOMEscan
Description: as §1, §2

KIT(A829P) = target: T23, KIT(A829P) (Homo sapiens, UniProt P10721, A829P); conditions: 1 µM i-CDK9; read-out: % Retention on Solid Support
T23 construct: purchased DiscoveRx KINOMEscan
Description: as §1, §2

`N[C@H]1CC[C@H](Nc2cc(-c3cccc(NCc4cccc(F)c4)n3)c(Cl)cn2)CC1` [i-CDK9, N2′-(trans-4-aminocyclohexyl)-5′-chloro-N6-(3-fluorobenzyl)-2,4′-bipyridine-2′,6-diamine] was tested, and the remaining binding at 1 µM (EPHA4; 1 µM i-CDK9) was 100%, the remaining binding at 10 µM (EPHA4; 10 µM i-CDK9) was 89% and the remaining binding at 1 µM (GRK7; 1 µM i-CDK9) was 100%. It also gave a remaining binding at 10 µM (GRK7; 10 µM i-CDK9) of 84%, a remaining binding at 1 µM (MEK3; 1 µM i-CDK9) of 99% and a remaining binding at 10 µM (MEK3; 10 µM i-CDK9) of 85%. For the same compound, the remaining binding at 1 µM (CLK1; 1 µM i-CDK9) was 14%, the remaining binding at 10 µM (CLK1; 10 µM i-CDK9) was 0.55% and the “% Retention on Solid Support” value (MKK7) was 100%. For the same compound, the “% Retention on Solid Support” value (MARK4; 1 µM i-CDK9) was 100%, the “% Retention on Solid Support” value (MARK4; 10 µM i-CDK9) was 100% and the remaining binding at 1 µM (IGF1R; 1 µM i-CDK9) was 94%. For the same compound, the remaining binding at 10 µM (IGF1R; 10 µM i-CDK9) was 100%, the “% Retention on Solid Support” value ([1]; 1 µM i-CDK9) was 70% and the “% Retention on Solid Support” value ([1]; 10 µM i-CDK9) was 100%. The remaining binding at 1 µM (AKT1; 1 µM i-CDK9) was 100%, the remaining binding at 10 µM (AKT1; 10 µM i-CDK9) was 100% and the remaining binding at 1 µM (ZAP70; 1 µM i-CDK9) was 1.6%. It also gave a remaining binding at 10 µM (ZAP70; 10 µM i-CDK9) of 96%, a remaining binding at 1 µM (NIM1; 1 µM i-CDK9) of 100% and a remaining binding at 10 µM (NIM1; 10 µM i-CDK9) of 100%. It also gave a remaining binding at 1 µM (MLK2; 1 µM i-CDK9) of 100%, a remaining binding at 10 µM (MLK2; 10 µM i-CDK9) of 100% and a remaining binding at 1 µM (PKAC-beta; 1 µM i-CDK9) of 80%. For the same compound, the remaining binding at 10 µM (PKAC-beta; 10 µM i-CDK9) was 80%, the remaining binding at 1 µM (YANK1) was 100% and the remaining binding at 1 µM [2] was 96%. For the same compound, the “% Retention on Solid Support” value (LOK; 1 µM i-CDK9) was 89%, the “% Retention on Solid Support” value (LOK; 10 µM i-CDK9) was 100% and the “% Retention on Solid Support” value (ACVR2B; 1 µM i-CDK9) was 100%. The “% Retention on Solid Support” value (ACVR2B; 10 µM i-CDK9) was 85%, the remaining binding at 1 µM (ERK3; 1 µM i-CDK9) was 94% and the remaining binding at 10 µM (ERK3; 10 µM i-CDK9) was 94%. For the same compound, the “% Retention on Solid Support” value (MET; 1 µM i-CDK9) was 94%, the “% Retention on Solid Support” value (MET; 10 µM i-CDK9) was 96% and the remaining binding at 1 µM (PIK3CA(C420R); 1 µM i-CDK9) was 100%. For the same compound, the remaining binding at 10 µM (PIK3CA(C420R); 10 µM i-CDK9) was 100%, the “% Retention on Solid Support” value ([3]; 1 µM i-CDK9) was 46% and the “% Retention on Solid Support” value ([3]; 10 µM i-CDK9) was 85%. For the same compound, the remaining binding at 1 µM (TGFBR2; 1 µM i-CDK9) was 87%, the remaining binding at 10 µM (TGFBR2; 10 µM i-CDK9) was 100% and the remaining binding at 1 µM (KIT(A829P)) was 100%.
